Experimental data as given in patent US9365588B2, “Benzoxazines as modulators of ion channels” (Vertex Pharmaceuticals Incorporated, priority 2011, dated 2016).

Target: human NaV 1.7 (Homo sapiens, UniProt Q15858)
Test: E-VIPR optical membrane potential assay with electrical stimulation
Format: cell-based
Settings: sodium channel inhibition; read-out: Binned Activity Data (IC50)
Description: Assays for Detecting and Measuring NaV Inhibition Properties of Compound E-VIPR Optical Membrane Potential Assay Method with Electrical Stimulation
Sodium channels are voltage-dependent proteins that can be activated by inducing membrane voltage changes by applying electric fields. The electrical stimulation instrument and methods of use are described in Ion Channel Assay Methods PCT/US01/21652, herein incorporated by reference and are referred to as E-VIPR. The instrument comprises a microtiter plate handler, an optical system for exciting the coumarin dye while simultaneously recording the coumarin and oxonol emissions, a waveform generator, a current- or voltage-controlled amplifier, and a device for inserting electrodes in well. Under integrated computer control, this instrument passes user-programmed electrical stimulus protocols to cells within the wells of the microtiter plate.
24 hours before the assay on E-VIPR, HEK cells expressing human NaV subtype, like NaV 1.7, are seeded in 384-well poly-lysine coated plates at 15,000-20,000 cells per well. Other subtypes are performed in an analogous mode in a cell line expressing the NaV of interest. HEK cells are grown in media (exact composition is specific to each cell type and NaV subtype) supplemented with 10% FBS (Fetal Bovine Serum, qualified; GibcoBRL #16140-071) and 1% Pen-Strep (Penicillin-Streptomycin; GibcoBRL #15140-122). Cells are grown in vented cap flasks, in 90% humidity and 10% CO2, to 100% confluence. They are usually split by trypsinization 1:10 or 1:20, depending on scheduling needs, and grown for 2-3 days before the next split.
Bath1 buffer. Glucose 10 mM (1.8 g/L), Magnesium Chloride (Anhydrous), 1 mM (0.095 g/L), Calcium Chloride, 2 mM (0.222 g/L), HEPES 10 mM (2.38 g/L), Potassium Chloride, 4.5 mM (0.335 g/L), Sodium Chloride 160 mM (9.35 g/L).
Hexyl Dye Solution: Bath1 Buffer+0.5% β-cyclodextrin (make this prior to use, Sigma #C4767), 8 μM CC2-DMPE+2.5 μM DiSBAC6(3). To make the solution Add volume of 10% Pluronic F127 stock equal to volumes of CC2-DMPE+DiSBAC6(3). The order of preparation is first mix Pluronic and CC2-DMPE, then add DiSBAC6(3) while vortexing, then add Bath1+β-Cyclodextrin.
1) Pre-spot compounds (in neat DMSO) into compound plates. Vehicle control (neat DMSO), the positive control (20 mM DMSO stock tetracaine, 125 μM final in assay) and test compounds are added to each well at 160× desired final concentration in neat DMSO. Final compound plate volume will be 80 μL (80-fold intermediate dilution from 1 μL DMSO spot; 160-fold final dilution after transfer to cell plate). Final DMSO concentration for all wells in assay is 0.625%.
2) Prepare Hexyl Dye Solution.
3) Prepare cell plates. On the day of the assay, medium is aspirated and cells are washed three times with 100 μL of Bath1 Solution, maintaining 25 μL residual volume in each well.
4) Dispense 25 μL per well of Hexyl Dye Solution into cell plates. Incubate for 20-35 minutes at room temp or ambient conditions.
5) Dispense 80 μL per well of Bath1 into compound plates. Acid Yellow-17 (1 mM) is added and Potassium Chloride can be altered from 4.5 to 20 mM depending on the NaV subtype and assay sensitivity.
6) Wash cell plates three times with 100 μL per well of Bath1, leaving 25 μL of residual volume. Then transfer 25 uL per well from Compound Plates to Cell Plates. Incubate for 20-35 minutes at room temp/ambient condition
7) Read Plate on E-VIPR. Use the current-controlled amplifier to deliver stimulation wave pulses for typically 9 seconds and a scan rate of 400 Hz. A pre-stimulus recording is performed for 0.5 seconds to obtain the un-stimulated intensities baseline. The stimulatory waveform is applied for 9 seconds followed by 0.5 seconds of post-stimulation recording to examine the relaxation to the resting state. […]

Chain of human NaV 1.7 (Q15858 whole entry): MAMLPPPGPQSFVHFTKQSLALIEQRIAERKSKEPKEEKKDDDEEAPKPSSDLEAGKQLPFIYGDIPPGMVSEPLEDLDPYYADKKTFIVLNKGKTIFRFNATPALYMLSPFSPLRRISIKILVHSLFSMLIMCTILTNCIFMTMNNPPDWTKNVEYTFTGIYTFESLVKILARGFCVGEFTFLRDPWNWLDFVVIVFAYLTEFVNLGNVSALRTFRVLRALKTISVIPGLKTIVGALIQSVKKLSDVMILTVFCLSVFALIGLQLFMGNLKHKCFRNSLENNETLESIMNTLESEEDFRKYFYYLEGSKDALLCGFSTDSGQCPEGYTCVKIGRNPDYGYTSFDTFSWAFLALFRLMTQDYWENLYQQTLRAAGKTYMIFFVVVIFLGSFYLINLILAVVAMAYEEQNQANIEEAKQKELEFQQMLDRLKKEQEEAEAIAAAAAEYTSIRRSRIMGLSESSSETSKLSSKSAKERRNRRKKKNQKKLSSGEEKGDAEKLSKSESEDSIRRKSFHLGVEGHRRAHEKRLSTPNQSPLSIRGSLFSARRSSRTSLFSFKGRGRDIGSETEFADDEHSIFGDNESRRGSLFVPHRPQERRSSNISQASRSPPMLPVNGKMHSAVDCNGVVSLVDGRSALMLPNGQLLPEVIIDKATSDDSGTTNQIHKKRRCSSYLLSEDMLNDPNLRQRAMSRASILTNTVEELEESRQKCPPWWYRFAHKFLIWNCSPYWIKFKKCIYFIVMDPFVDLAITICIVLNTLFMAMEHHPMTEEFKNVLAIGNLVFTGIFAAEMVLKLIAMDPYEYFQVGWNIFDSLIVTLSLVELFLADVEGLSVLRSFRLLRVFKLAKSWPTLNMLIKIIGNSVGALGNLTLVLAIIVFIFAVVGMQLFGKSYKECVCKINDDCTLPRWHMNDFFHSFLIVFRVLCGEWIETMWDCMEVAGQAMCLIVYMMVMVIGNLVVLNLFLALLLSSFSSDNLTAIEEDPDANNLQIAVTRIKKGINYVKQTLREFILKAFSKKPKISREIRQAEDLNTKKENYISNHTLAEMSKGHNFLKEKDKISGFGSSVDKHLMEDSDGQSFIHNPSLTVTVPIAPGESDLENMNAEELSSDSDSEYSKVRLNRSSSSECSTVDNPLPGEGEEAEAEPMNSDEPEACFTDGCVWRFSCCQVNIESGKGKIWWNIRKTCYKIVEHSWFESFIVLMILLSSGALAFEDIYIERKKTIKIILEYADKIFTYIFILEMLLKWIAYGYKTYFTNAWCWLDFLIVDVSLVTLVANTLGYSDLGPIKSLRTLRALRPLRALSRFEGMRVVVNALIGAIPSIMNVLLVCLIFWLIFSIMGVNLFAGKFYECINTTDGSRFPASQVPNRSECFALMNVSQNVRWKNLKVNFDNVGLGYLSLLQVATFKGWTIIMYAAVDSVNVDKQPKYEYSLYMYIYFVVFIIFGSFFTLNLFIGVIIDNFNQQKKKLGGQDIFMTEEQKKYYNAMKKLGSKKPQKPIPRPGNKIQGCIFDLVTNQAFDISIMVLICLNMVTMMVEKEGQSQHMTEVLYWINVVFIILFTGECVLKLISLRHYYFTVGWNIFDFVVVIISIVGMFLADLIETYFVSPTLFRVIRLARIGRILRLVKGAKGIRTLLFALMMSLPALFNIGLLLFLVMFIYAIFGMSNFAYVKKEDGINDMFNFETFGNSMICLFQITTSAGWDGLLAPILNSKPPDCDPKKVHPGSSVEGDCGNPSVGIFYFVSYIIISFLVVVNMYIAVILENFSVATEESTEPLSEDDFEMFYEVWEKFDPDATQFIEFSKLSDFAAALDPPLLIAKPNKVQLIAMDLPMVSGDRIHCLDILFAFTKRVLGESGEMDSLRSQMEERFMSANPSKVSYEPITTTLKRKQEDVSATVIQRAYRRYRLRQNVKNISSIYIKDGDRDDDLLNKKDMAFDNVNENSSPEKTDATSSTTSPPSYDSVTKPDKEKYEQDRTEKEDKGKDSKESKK

| IC50 [nM] | Structure (SMILES) |
| --- | --- |
| ≤ 2000 | CC(C)Oc1ccc(C(=O)N2CCC3(CC2)Oc2ccccc2-n2c3ccc2S(C)(=O)=O)c(F)c1 [Compound 70] |
| ≤ 2000 | Cc1cc(C(=O)N2CCC3(CC2)Oc2cc(F)ccc2-n2cccc23)ccc1OCC1CCCO1 (stereo not shown) [Compound 74] |
| ≤ 2000 | Cc1cc(C(=O)N2CCC3(CC2)Oc2ccccc2-n2c(C#N)ccc23)ccc1O [Compound 76] |
| ≤ 2000 | CC(C)(C)S(=O)(=O)c1ccc(C(=O)N2CCC3(CC2)Oc2ccccc2-c2nn(C(F)(F)F)cc23)cc1 [Compound 78] |
| > 5000 | COc1ccc(Cl)cc1C(=O)N1CCC2(CC1)Oc1ccccc1-c1c2cnn1C [Compound 80] |
| ≤ 2000 | COc1ccccc1C(=O)N1CCC2(CC1)Oc1cc(Cl)ccc1-n1cccc12 [Compound 81] |
| ≤ 2000 | COCCn1ncc2c1-c1ccccc1OC21CCN(C(=O)c2ccc(C(C)(C)C)c(OC)c2)CC1 [Compound 82] |
| ≤ 2000 | COCCCOc1ccc(C(=O)N2CCC3(CC2)Oc2ccccc2-n2cccc23)cc1OC [Compound 83] |
| 2000 to 5000 | Cc1cc(OC(F)(F)F)ccc1C(=O)N1CCC2(CC1)Oc1ccccc1-c1c2cnn1C [Compound 84] |
| > 5000 | Cn1ncc2c1-c1ccccc1OC21CCN(C(=O)c2ccc(=O)n(C)c2)CC1 [Compound 87] |
| ≤ 2000 | COc1cc(C(=O)N2CCC3(CC2)Oc2cc(Cl)ccc2-n2cccc23)ccc1OC[C@H](O)CO [Compound 90] |
| 2000 to 5000 | Cc1nc2c(C(=O)N3CCC4(CC3)Oc3ccccc3-c3c4cnn3C)cccc2[nH]1 [Compound 92] |
| 2000 to 5000 | COc1cc(S(C)(=O)=O)ccc1C(=O)N1CCC2(CC1)Oc1ccccc1-c1c2cnn1C [Compound 93] |
| ≤ 2000 | COc1cc(OC(C)(C)C)ccc1C(=O)N1CCC2(CC1)Oc1ccccc1-c1c2cnn1C [Compound 94] |
| ≤ 2000 | COC[C@H](C)Oc1ccc(C(=O)N2CCC3(CC2)Oc2ccccc2-n2cccc23)cc1C(F)(F)F [Compound 95] |
| ≤ 2000 | COc1cc(C(=O)N2CCC3(CC2)Oc2ccccc2-n2cccc23)ccc1OCCO [Compound 97] |

| IC50 [nM] | Structure (SMILES) |
| --- | --- |
| ≤ 2000 | CCOc1cc(C(=O)N2CCC3(CC2)Oc2ccccc2-c2nn(C)cc23)ccc1OC [Compound 98] |
| ≤ 2000 | Cn1ncc2c1-c1ccccc1OC21CCN(C(=O)c2cccn3ccnc23)CC1 [Compound 99] |
| ≤ 2000 | COC(=O)c1c(OC)cccc1C(=O)N1CCC2(CC1)Oc1ccccc1-n1c(C#N)ccc12 [Compound 101] |
| > 5000 | Cn1ncc2c1-c1ccccc1OC21CCN(C(=O)c2ccccc2O)CC1 [Compound 102] |
| ≤ 2000 | CC(C)(CO)c1ccc(C(=O)N2CCC3(CC2)Oc2cc(Cl)ccc2-n2cccc23)cc1F [Compound 103] |
| > 5000 | Cn1ncc2c1-c1ccccc1OC21CCN(C(=O)c2ccc(N3CCCCC3)nc2)CC1 [Compound 104] |
| ≤ 2000 | Cc1ccc(C(=O)N2CCC3(CC2)Oc2cc(Cl)ccc2-n2cccc23)cc1C [Compound 105] |
| ≤ 2000 | CC(C)(CO)c1ccc(C(=O)N2CCC3(CC2)Oc2cc(Cl)ccc2-n2cccc23)cc1 [Compound 106] |
| ≤ 2000 | Cn1ncc2c1-c1ccc(Cl)cc1OC21CCN(C(=O)c2cccc(F)c2OC(F)F)CC1 [Compound 108] |
| ≤ 2000 | COc1c(C)cccc1C(=O)N1CCC2(CC1)Oc1ccccc1-c1c2cnn1C [Compound 109] |
| ≤ 2000 | COc1ccc(C(=O)N2CCC3(CC2)Oc2cc(Cl)ccc2-n2cccc23)c(C)c1 [Compound 111] |
| ≤ 2000 | COc1cc(C(=O)N2CCC3(CC2)Oc2ccccc2-n2cccc23)ccc1O[C@@H]1CCOC1 [Compound 112] |
| ≤ 2000 | Cn1cc2c(n1)-c1ccccc1OC21CCN(C(=O)c2cccc3cccnc23)CC1 [Compound 113] |
| ≤ 2000 | COc1cc(C(=O)N2CCC3(CC2)Oc2ccccc2-n2c(C(C)=O)ccc23)ccc1OC(C)C [Compound 114] |
| ≤ 2000 | COc1ccc(F)cc1C(=O)N1CCC2(CC1)Oc1ccccc1-n1c(C#N)ccc12 [Compound 115] |
